# Measurements reported in patent US7734426B2 (priority 1999, dated 2010).
# Entries after “also recorded” stand apart in the source; their conditions may differ. Where no end group is shown, it is not given here.
# Test system: CA1 region of hippocampal slices
# Details: cited from earlier work
row,Compound,effect on synaptic transmission
1,"O=CC[C@@H](O)[C@H](O)[C@H](O)CO [2-DG, 2-deoxy-D-glucose]",reversibly suppresses synaptic transmission

# Test system: NG-108-15 Cells
# Format: cell-based
# Details: not given
Compound,Effect,Onset Time [s],inhibit repetitive firing,effect on the AP
N=C(N)NC(=O)c1nc(Cl)c(N)nc1N [amiloride],L-type Ca^2+ channel,<60,amiloride*,–
C=C(C=O)C[C@@H]1C[C@H](O)[C@]2(C)O[C@@H]3C[C@@H]4O[C@@H]5C[C@]6(C)O[C@]7(C)CC[C@@H]8O[C@@H]9C[C@]%10(C)O[C@@H]%11C(C)=CC(=O)O[C@H]%11C[C@H]%10O[C@H]9C[C@@H](C)[C@H]8O[C@H]7C[C@H]6O[C@H]5C/C=C\[C@H]4O[C@H]3C[C@H]2O1 [brevetoxin],Na^+ channel,<60,brevetoxin*,–
C[N+](C)(C)CCOC(N)=O [carbachol],muscarinic receptor,<60,carbachol*,–
COC(=O)C1=C(C)NC(C)=C(C(=O)OC)C1c1ccccc1[N+](=O)[O-] [nifedipine],–,–,nifedipine*,–
C[C@@H]1O[C@@H](O[C@H]2C[C@@H](O)[C@]3(CO)[C@H]4[C@H](O)C[C@]5(C)[C@@H](C6=CC(=O)OC6)CC[C@]5(O)[C@@H]4CC[C@]3(O)C2)[C@H](O)[C@H](O)[C@H]1O [ouabain],Na^+—Ca^2+ pump; also recorded: inhibition,<60,ouabain*,–
C=C[C@H]1C[N@@]2CC[C@H]1C[C@H]2[C@H](O)c1ccnc2ccc(OC)cc12 [quinine],non-specific K^+ channel,<60,quinine*,–
NC1=N[C@H](O)[C@H]2[C@H]3O[C@]4(O)O[C@@H]([C@@H](O)[C@@]2(N1)[C@@H]4O)[C@]3(O)CO [tetrodotoxin],Na^+ channel,<60,tetrodotoxin*,affected the AP
COc1ccc(CCN(C)CCCC(C#N)(c2ccc(OC)c(OC)c2)C(C)C)cc1OC (stereo not drawn) [verapamil],L-type Ca^2+ channel,<60,verapamil*,–
Charybdotoxin,Kca “BK”-type channel,<60,Charybdotoxin*,–

# Test system: CA1 pyramidal cells in hippocampal slices
# Details: cited from earlier work
row,Compound,changes in the action potential
1,C[N+](C)(C)CCOC(N)=O [carbachol],several reversible changes in the action potential

# Test system: CNS stem cells
# Details: cited from earlier work
row,Compound,"neuronal differentiation, % of the cells [%]"
1,platelet-derived growth factor [PDGF],90

# Test system: hippocampal interneurons
# Details: cited from earlier work
row,Compound,effect on action potential frequency / currents
1,"CCK-8S (DYMGWMDF; not fully specified; UniProt P06307 96-103, looked up)",increased action potential frequency or generated inward currents
